Assay results as given in PubChem BioAssay (NCI).
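A five-concentration, 48-hour dose response in 96-well plates underlies each endpoint, interpolated linearly between surrounding concentrations. TGI: concentration producing complete growth inhibition.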

Columns and labels:
Experiment in all cases: NCI anticancer screen, dose series, 48 h
[1] = tested on: NCI-H460 lung
[2] = tested on: SW-620 colon
[3] = tested on: MDA-MB-231 breast
[4] = tested on: SF-295 CNS
[5] = tested on: SF-539 CNS
[6] = tested on: ACHN renal
[7] = tested on: SK-MEL-28 melanoma
[8] = tested on: OVCAR-5 ovarian
[9] = tested on: MDA-MB-435
[10] = tested on: EKVX NSCLC
[11] = tested on: RXF 393 renal
[12] = tested on: HOP-92 NSCLC
[13] = tested on: M14 melanoma
[14] = tested on: SR leukemia
[15] = tested on: HCT-15 colon
[16] = tested on: UACC-62 melanoma
[17] = tested on: NCI/ADR-RES ovarian
[18] = tested on: KM12 colon
[19] = tested on: PC-3 prostate
[20] = tested on: SK-MEL-5 melanoma
[21] = tested on: COLO 205 colon
[22] = tested on: A498 renal
[23] = tested on: HS 578T breast
[24] = tested on: RPMI-8226 leukemia
[25] = tested on: SN12C renal
[26] = tested on: MCF7 breast
[27] = tested on: SF-268 CNS
[28] = tested on: NCI-H23 lung
[29] = tested on: BT-549 breast
[30] = tested on: MOLT-4 leukemia
[31] = tested on: IGROV1 ovarian
[32] = tested on: CAKI-1 renal
[33] = tested on: OVCAR-3 ovarian
[34] = tested on: HCT-116 colon
[35] = tested on: HL-60(TB) leukemia
[36] = tested on: MALME-3M melanoma
[37] = tested on: T-47D breast
[38] = tested on: CCRF-CEM leukemia
[39] = tested on: SNB-19 CNS
[40] = tested on: NCI-H522 lung
[41] = tested on: K-562 leukemia
[42] = tested on: OVCAR-8 ovarian
[43] = tested on: NCI-H226 lung
[44] = tested on: SK-MEL-2 melanoma
[45] = tested on: LOX IMVI melanoma
[46] = tested on: SNB-75 CNS
[47] = tested on: HT29 colon
[48] = tested on: MDA-N
[49] = tested on: TK-10 renal
[50] = tested on: OVCAR-4 ovarian
[51] = tested on: DU-145 prostate
[52] = tested on: HCC-2998 colon
[53] = tested on: A549 NSCLC
[54] = tested on: U251 CNS
[55] = tested on: SK-OV-3 ovarian
[56] = tested on: UACC-257 melanoma
[57] = tested on: 786-0 renal
[58] = tested on: UO-31 renal
[59] = tested on: HOP-62 NSCLC

How did the TGI [1] turn out when CC(C)NCC(O)c1cc(OCc2ccccc2)c(OCc2ccccc2)cc1NC(=O)CCC(=O)O (stereo not drawn) was run?
Its TGI is 3.71 µM.

And the TGI [2]?
The TGI was 7.51 µM.

What about the TGI [3] of the same molecule?
Its TGI is 20.9 µM.

What about the TGI [4] of the same molecule?
The TGI was 15.7 µM.

What about the TGI [5] of the same molecule?
Its TGI is 30.9 µM.

What about the TGI [6] of the same molecule?
Its TGI is 13.1 µM.

What about the TGI [7] of the same molecule?
The TGI was 9.37 µM.

What about the TGI [8] of the same molecule?
The TGI was 30.6 µM.

What about the TGI [9] of the same molecule?
Its TGI is 17.4 µM.

And the TGI [10]?
The TGI was 26.9 µM.

And the TGI [11]?
Its TGI is 18.6 µM.

What about the TGI [12] of the same molecule?
The TGI was 19 µM.

And the TGI [13]?
Its TGI is 3.48 µM.

And the TGI [14]?
Its TGI is 9.01 µM.

And the TGI [15]?
The TGI was 12.4 µM.

What about the TGI [16] of the same molecule?
The TGI was 8.69 µM.

What about the TGI [17] of the same molecule?
The TGI was 28.7 µM.

And the TGI [18]?
The TGI was 9.51 µM.

And the TGI [19]?
Its TGI is 21.3 µM.

And the TGI [20]?
Its TGI is 4.97 µM.

And the TGI [21]?
Its TGI is 4.01 µM.

And the TGI [22]?
The TGI was 26 µM.

What about the TGI [23] of the same molecule?
The TGI was 30.7 µM.

What about the TGI [24] of the same molecule?
The TGI was 8.65 µM.

What about the TGI [25] of the same molecule?
Its TGI is 24.3 µM.

What about the TGI [26] of the same molecule?
Its TGI is 19 µM.

And the TGI [27]?
Its TGI is 22.7 µM.

And the TGI [28]?
Its TGI is 26.5 µM.

What about the TGI [29] of the same molecule?
The TGI was 31.1 µM.

What about the TGI [30] of the same molecule?
Its TGI is 14.8 µM.

What about the TGI [31] of the same molecule?
The TGI was 24.2 µM.

And the TGI [32]?
The TGI was 21.3 µM.

What about the TGI [33] of the same molecule?
Its TGI is 28.2 µM.

What about the TGI [34] of the same molecule?
Its TGI is 17.9 µM.

And the TGI [35]?
The TGI was 15.4 µM.

And the TGI [36]?
Its TGI is 28.6 µM.

And the TGI [37]?
The TGI was 25.7 µM.

What about the TGI [38] of the same molecule?
Its TGI is 13 µM.

What about the TGI [39] of the same molecule?
Its TGI is 28.3 µM.

And the TGI [40]?
Its TGI is 11.7 µM.

What about the TGI [41] of the same molecule?
Its TGI is 4.32 µM.

What about the TGI [42] of the same molecule?
Its TGI is 21.5 µM.

What about the TGI [43] of the same molecule?
Its TGI is 33.2 µM.

What about the TGI [44] of the same molecule?
The TGI was 3.32 µM.

And the TGI [45]?
The TGI was 2.97 µM.

And the TGI [46]?
The TGI was 23.9 µM.

What about the TGI [47] of the same molecule?
The TGI was 12.9 µM.

And the TGI [48]?
Its TGI is 5.97 µM.

What about the TGI [49] of the same molecule?
Its TGI is 22.5 µM.

And the TGI [50]?
The TGI was 24.8 µM.

What about the TGI [51] of the same molecule?
Its TGI is 25.8 µM.

And the TGI [52]?
Its TGI is 6.47 µM.

And the TGI [53]?
The TGI was 24.5 µM.

What about the TGI [54] of the same molecule?
The TGI was 18.2 µM.

What about the TGI [55] of the same molecule?
Its TGI is 29.2 µM.

And the TGI [56]?
The TGI was 26.4 µM.

And the TGI [57]?
The TGI was 20.9 µM.

And the TGI [58]?
Its TGI is 15 µM.

What about the TGI [59] of the same molecule?
Its TGI is 29.7 µM.

Which TGI [1] does the source give for Cn1ccnc1Sc1ccc(/C=N/NC(=O)c2ccccc2[N+](=O)[O-])cc1[N+](=O)[O-] here?
The TGI was greater than 100 µM.

And the TGI [2]?
The TGI was greater than 100 µM.

What about the TGI [3] of the same molecule?
Its TGI is 97.6 µM.

And the TGI [4]?
The TGI was greater than 100 µM.

What about the TGI [5] of the same molecule?
The TGI was greater than 100 µM.

What about the TGI [6] of the same molecule?
The TGI was greater than 100 µM.

And the TGI [7]?
Its TGI is greater than 100 µM.

What about the TGI [8] of the same molecule?
Its TGI is greater than 100 µM.

And the TGI [9]?
The TGI was greater than 100 µM.

And the TGI [10]?
Its TGI is greater than 100 µM.

And the TGI [11]?
Its TGI is greater than 100 µM.

And the TGI [12]?
The TGI was greater than 100 µM.

And the TGI [13]?
The TGI was greater than 100 µM.

What about the TGI [14] of the same molecule?
The TGI was greater than 100 µM.

What about the TGI [15] of the same molecule?
Its TGI is greater than 100 µM.

What about the TGI [16] of the same molecule?
The TGI was greater than 100 µM.

And the TGI [17]?
The TGI was greater than 100 µM.

What about the TGI [18] of the same molecule?
Its TGI is greater than 100 µM.

What about the TGI [19] of the same molecule?
Its TGI is greater than 100 µM.

What about the TGI [20] of the same molecule?
The TGI was greater than 100 µM.

And the TGI [21]?
Its TGI is greater than 100 µM.

What about the TGI [22] of the same molecule?
Its TGI is greater than 100 µM.

And the TGI [23]?
Its TGI is greater than 100 µM.

What about the TGI [24] of the same molecule?
Its TGI is greater than 100 µM.

What about the TGI [25] of the same molecule?
Its TGI is greater than 100 µM.

What about the TGI [26] of the same molecule?
The TGI was greater than 100 µM.

And the TGI [27]?
The TGI was greater than 100 µM.

What about the TGI [28] of the same molecule?
Its TGI is greater than 100 µM.

What about the TGI [29] of the same molecule?
Its TGI is greater than 100 µM.

And the TGI [30]?
The TGI was greater than 100 µM.

What about the TGI [31] of the same molecule?
The TGI was greater than 100 µM.

And the TGI [32]?
Its TGI is greater than 100 µM.

And the TGI [33]?
The TGI was greater than 100 µM.

And the TGI [34]?
Its TGI is greater than 100 µM.

What about the TGI [35] of the same molecule?
The TGI was greater than 100 µM.

What about the TGI [36] of the same molecule?
Its TGI is greater than 100 µM.

And the TGI [37]?
The TGI was greater than 100 µM.

What about the TGI [38] of the same molecule?
The TGI was greater than 100 µM.

And the TGI [39]?
Its TGI is greater than 100 µM.

What about the TGI [40] of the same molecule?
Its TGI is greater than 100 µM.

And the TGI [41]?
Its TGI is greater than 100 µM.

And the TGI [42]?
The TGI was greater than 100 µM.

And the TGI [43]?
The TGI was greater than 100 µM.

What about the TGI [44] of the same molecule?
The TGI was greater than 100 µM.

What about the TGI [45] of the same molecule?
The TGI was greater than 100 µM.

What about the TGI [46] of the same molecule?
Its TGI is greater than 100 µM.

And the TGI [47]?
The TGI was greater than 100 µM.

What about the TGI [48] of the same molecule?
Its TGI is greater than 100 µM.

And the TGI [49]?
Its TGI is greater than 100 µM.

What about the TGI [50] of the same molecule?
Its TGI is greater than 100 µM.

What about the TGI [51] of the same molecule?
The TGI was greater than 100 µM.

What about the TGI [52] of the same molecule?
Its TGI is 95.6 µM.

What about the TGI [53] of the same molecule?
Its TGI is greater than 100 µM.

And the TGI [54]?
The TGI was greater than 100 µM.

And the TGI [55]?
Its TGI is greater than 100 µM.

What about the TGI [56] of the same molecule?
Its TGI is greater than 100 µM.

What about the TGI [57] of the same molecule?
The TGI was greater than 100 µM.

What about the TGI [58] of the same molecule?
Its TGI is greater than 100 µM.

What about the TGI [59] of the same molecule?
The TGI was greater than 100 µM.
